Data: patent publication US20220288137A1, “Bifidobacterium Longum Subsp. Infantis CCFM687 and Fermented Food and Application Thereof” (Jiangnan University, priority 2018, published 2022)

System: depressed mice (chronic unpredictable stress depression mouse model)
Assay: Butyric acid content in the caecum of depressed mice (GC-MS)
Assay type: in vivo, C57BL/6J mice
Settings: 6 weeks intervention (CCFM687 10^9 cfu or fluoxetine 10 mg/kg), GC-MS of cecal content (FIG. 3)
Procedure: 32 6-week-old male C57BL/6J mice were selected. After one week of adaptation to the environment, the mice were randomly divided into four groups according to body weight: a control group, a model group, a fluoxetine intervention group, and a CCFM687 intervention group, each containing 8 mice.
Chronic unpredictable stress depression mouse model: 1-2 kinds of stimuli were randomly performed every day, and the performance time of stimuli every day was determined randomly to avoid the circadian rhythm. Each method was used for not more than three times, and the stimuli were performed for five weeks. The stimuli include: (1) fasting for 24 h; (2) water deprivation+empty bottle stimulus for 24 h; (3) tail pinching for 3 min; (4) wet padding for 24 h; (5) immobilization for 1-2 h; (6) 45° tilted cage for 24 h; (7) continuous lighting for 24 h; (8) no padding for 24 h; (9) forced swim for 15 min; and (10) separation for 24 h. […]
The mice in Example 2 were euthanized at the sixth weekend, and the content of the cecum of the mice was collected. […] 500 μL of supernatant was taken into a gas phase vial, and the contents of short-chain fatty acids (acetic acid, propionic acid, isobutyric acid, butyric acid and isovaleric acid) were measured by GC-MS. […] The analysis adopted a full scan mode, and the concentration of each short-chain fatty acid (μmol/g) was calculated by an external standard method. […]

CNCCC(Oc1ccc(C(F)(F)F)cc1)c1ccccc1 (stereo not shown) [fluoxetine]
butyric acid content in the caecum / intestine: has no regulating effect on the butyric acid content
